# Test results reported in patent US20090081189A1, “Process for in vitro differentiation of neuronal stem cells or of cells derived from neuronal stem cells” (Axaron Bioscfience Ag, priority 2003, published 2009).
# System: beta-catenin
# Assay: Western blot of beta-catenin in adult neuronal stem and progenitor cells after inhibition of the Wnt signal pathway
# Type: cell-based, rat
# Settings: genistein 50 μM, undifferentiated and differentiated, densitometry of Western blot, versus cells without inhibition
# Experimental: To inhibit the Wnt signal pathway, the unspecific kinase inhibitor genistein is added at a concentration of 50 μM in order to inhibit the action of glycogen synthase kinase 3 (GSK 3) (Murase S et al., 2002, Neuron, 35, 91-105).
# Subsequently, a protein extract (see above, example 1) is prepared and the beta-catenin protein is identified by one dimensional gel electrophoresis and Western blotting (FIG. 3, FIG. 4).
# The protein extracts of the adult neuronal stem cells are first fractionated in a 12% polyacrylamide gel in Lammli buffer consisting of 2% (w/v) sodium dodecylsulfate, 10% (v/v) glycerol, 100 mM dithiothreitol, 60 mM Tris-HCl, pH 6.8, 0.001% bromophenol blue and 5% 2-mercaptoethanol and applied to a nitrocellulose membrane (Optitran BA-S83, 0.2 μm, Schleicher & Schnell, Dassel, Germany) by the semi-dry blotting method (Kyhse-Andersen J, 1984, J Biochem Biophys Methods, 10, 203-209). […] Antibody binding is detected by way of chemiluminescent signals. […] The X-ray films are developed and measured densitometrically. […]
smiles,measurement,value
"O=c1c(-c2ccc(O)cc2)coc2cc(O)cc(O)c12 [genistein, 4′,5,7-trihydroxyisoflavone]",reduction of β-catenin expression (factor),~2
